Experimental findings from patent US10774051B2, “6-membered heterocyclic derivatives and pharmaceutical composition comprising the same” (Shionogi & Co., Ltd., priority 2015, dated 2020) are described below.

For one assay, the target named is human P2X7 receptor (Homo sapiens, UniProt Q99572, R270H/Y155H). Put plainly: Evaluation of human P2X7 receptor inhibitory activity (Yo-Pro uptake, BzATP stimulation, FLIPR TETRA). The format is cell-based. As to conditions: 1321N1 cells stably expressing human P2X7 receptor; BzATP stimulation, Yo-Pro uptake; read-out: IC50 (antagonistic activity for the human P2X7 receptor). The method in brief:
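1321N1 cells stably expressing human P2X7 (T606C/G952A SNP variant), in HBSS buffer pH 7.4-7.5 with Yo-Pro, stimulated with BzATP; compound added 8 min after agonist. Fluorescence followed for 20 min on FLIPR; max-minus-min change gave % inhibition, IC50 by logistic fit.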
As for `COc1ccc(C)c(Nc2nc(=O)c(OC)cn2Cc2ccc(F)c(F)c2)c1` [Compound I-0407], the IC50 is 0.006 µM.
On the same count and under the same terms, the figure for `Cc1ccc(N2CCCS2(=O)=O)cc1Nc1nc(=O)c(F)cn1Cc1ccc(F)cc1` [Compound I-0207] is 0.009 µM; for `COc1cn(Cc2ccccc2)c(Nc2cccc3c2CCCC3)nc1=O` [Compound I-0190] it is 0.071 µM; for `CCc1cc2c(cc1Nc1nc(=O)c(OC)cn1Cc1ccc(F)c(Cl)c1)CCC2` [Compound I-0242] it is 0.012 µM.

The assay is the same for the next values; noted with them: 1321N1 cells stably expressing human P2X7 receptor; BzATP stimulation, Yo-Pro uptake; read-out: IC50 (antagonistic activity for the human P2X7 receptor), class symbol.
For `COc1cc(C)c(Nc2nc(=O)c(OC)cn2Cc2ccc(F)c(Cl)c2)cc1OC` [Compound I-0229], the 50% inhibitory concentration (IC50) was under 0.01 µM.
The same measure, in the same setting: as for `Cc1c(Cl)cccc1Nc1nc(=O)c(CC(=O)O)cn1Cc1ccccc1` [Compound I-0025], the figure is 0.5 to 1 µM; as for `COc1cc(C)c(Nc2nc(=O)c(OC)cn2Cc2ccccc2)cc1C` [Compound I-0220], under 0.01 µM; as for `COc1cn(Cc2ccccc2)c(Nc2cccc(N(C)C)c2C)nc1=O` [Compound I-0217], 0.01 to 0.1 µM.
Consider `COc1c(C)ccc(Nc2nc(=O)c(OC)cn2Cc2cc(F)cc(F)c2)c1C` [Compound I-0540], for which the 50% inhibitory concentration (IC50) is under 0.01 µM.
In the case of `COc1cn(Cc2cc(F)cc(F)c2)c(Nc2cc(C)c(OC(F)F)cc2C)nc1=O` [Compound I-0355], the IC50 is under 0.01 µM.
Consider `COc1cn(Cc2ccc(F)c(F)c2)c(Nc2cc3[nH]ncc3cc2C)nc1=O` [Compound I-0491], for which the IC50 was under 0.01 µM.
Take `CCOc1cc(C)c(Nc2nc(=O)c(OC)cn2Cc2ccc(F)c(F)c2)cc1C` [Compound I-0260]: the IC50 was under 0.01 µM.
For the molecule `CCc1cc(OC)c(OC)cc1Nc1nc(=O)c(Cl)cn1Cc1ccccc1` [Compound I-0351], the half-inhibitory concentration (IC50) is under 0.01 µM.
Take `COc1cccc(Nc2nc(=O)c(OC)cn2Cc2cc(F)cc(Cl)c2)c1C` [Compound I-0509]: the IC50 was under 0.01 µM.
The same measure, in the same setting: the figure for `COc1cc(C)c(Nc2nc(=O)c(OC)cn2Cc2ccccc2)cc1OC` [Compound I-0182] is under 0.01 µM; for `COc1cn(Cc2cccc(Cl)c2)c(Nc2cccc(C)c2Cl)nc1=O` [Compound I-0481] it is 0.01 to 0.1 µM.
Same read-out and setting: the figure for `COc1cc(C)cc(Nc2nc(=O)c(OC)cn2Cc2cc(F)cc(F)c2)c1C` [Compound I-0371] is under 0.01 µM.
On to `CCc1cc(OC)ccc1Nc1nc(=O)c(OC)cn1Cc1ccc(F)c(F)c1` [Compound I-0264], for which the IC50 was under 0.01 µM.
In the case of `Cc1ccc(N2CCCS2(=O)=O)cc1Nc1nc(=O)c(F)cn1Cc1ccccc1` [Compound I-0148], the IC50 is 0.01 to 0.1 µM.
Regarding `COc1cn(Cc2ccccc2)c(NCc2c(C)cccc2C)nc1=O` [Compound I-0131], the IC50 fell in the range of 0.1 to 0.5 µM.
Take `COc1ccccc1Cn1cc(OC)c(=O)nc1Nc1cccc(Cl)c1C` [Compound I-0054]: the IC50 was in the range of 0.1 to 0.5 µM.
Regarding `COc1cn(Cc2ccc(F)c(Cl)c2)c(Nc2cc(S(C)(=O)=O)ccc2C)nc1=O` [Compound I-0547], the IC50 fell in the range of 0.01 to 0.1 µM.
Still for that read-out and setting: as for `COc1cc(C)cc(Nc2nc(=O)c(OC)cn2Cc2ccc(F)c(Cl)c2)c1C` [Compound I-0460], the figure is 0.01 to 0.1 µM; as for `COc1cn(Cc2ccccc2)c(Nc2cc(C)c(C)cc2C)nc1=O` [Compound I-0124], under 0.01 µM; as for `COc1cn(Cc2ccc(F)c(Cl)c2)c(Nc2ccc(C)cc2C)nc1=O` [Compound I-0376], under 0.01 µM.
As for `COc1cn(Cc2ccc(Cl)cc2)c(Nc2cccc(Cl)c2C)nc1=O` [Compound I-0127], the IC50 lay in the range of 0.01 to 0.1 µM.
Turning to `COc1cn(Cc2ccc(C)cc2)c(Nc2cccc(Cl)c2C)nc1=O` [Compound I-0045], the IC50 lay in the range of 0.5 to 1 µM.
With `COc1cn(Cc2ccc(F)c(Cl)c2)c(Nc2cc(OCC(F)(F)F)ccc2C)nc1=O` [Compound I-0497], the IC50 is 0.01 to 0.1 µM.
On the same count and under the same terms, the figure for `COc1cn(Cc2ccc(F)c(Cl)c2)c(Nc2cc(C(C)C)ccc2C)nc1=O` [Compound I-0228] is 0.01 to 0.1 µM; for `CCOc1ccc(C)c(Nc2nc(=O)c(OC)cn2Cc2ccccc2)c1` [Compound I-0455] it is 0.01 to 0.1 µM; for `COc1cn(Cc2ccc(F)c(F)c2)c(Nc2cc(OCC(F)(F)F)ccc2C)nc1=O` [Compound I-0495] it is 0.01 to 0.1 µM.
For the molecule `Cc1cc(C)c(Nc2nc(=O)c(C(=O)NC3CCOCC3)cn2Cc2ccccc2)cc1C` [Compound I-0219], the IC50 is 0.01 to 0.1 µM.
`Cc1ccccc1Cn1cc(O)c(=O)nc1Nc1cccc(C(F)(F)F)c1Cl` [Compound I-0015]: the IC50 fell in the range of 0.5 to 1 µM.
As to `CCc1ccc(OC)cc1Nc1nc(=O)c(OC)cn1Cc1cccc(Cl)c1` [Compound I-0254], the IC50 fell in the range of 0.01 to 0.1 µM.

The assay is the same for the next values; noted with them: antagonistic activity for the human P2X7 receptor; read-out: IC50.
With `COc1cn(Cc2ccccc2)c(Nc2cc(-c3cccn(C)c3=O)c(F)cc2C)nc1=O` [Compound I-0590], the IC50 lay within 0.01 to 0.1 µM.
As for `Cc1cc(F)c(-c2cccn(C)c2=O)cc1Nc1nc(=O)c(C)cn1Cc1cc(F)c(F)c(F)c1` [Compound I-1148], the IC50 is 0.01 to 0.1 µM.
Consider `COc1cc(C)c(Nc2nc(=O)c(OC)cn2Cc2cc(F)c(F)c(F)c2)cc1F` [Compound I-0804], for which the IC50 is under 0.01 µM.
In the case of `COc1ncccc1-c1ccc(C)c(Nc2nc(=O)c(OC)cn2Cc2cc(F)cc(F)c2)c1` [Compound I-0831], the IC50 was under 0.01 µM.
On to `CCOc1ccc(C)c(Nc2nc(=O)c(F)cn2Cc2ccc(F)c(F)c2)c1` [Compound I-0999], for which the IC50 is under 0.01 µM.
As to `COc1cn(Cc2cc(F)cc(Cl)c2)c(Nc2cccc(SC)c2C)nc1=O` [Compound I-0682], the half-maximal inhibitory concentration (IC50) was 0.01 to 0.1 µM.
As for `COc1cn(Cc2cc(F)cc(F)c2)c(Nc2cc3nc(C)sc3cc2C)nc1=O` [Compound I-0745], the IC50 was in the range of 0.1 to 0.5 µM.
With `Cc1nc2[nH]ccc2cc1Nc1nc(=O)c(F)cn1Cc1ccc(F)c(F)c1` [Compound I-1090], the IC50 fell in the range of 0.01 to 0.1 µM.
Still for that read-out and setting: as for `COc1ccc(C)c(Nc2nc(=O)cnn2Cc2cc(F)c(F)c(F)c2)c1` [Compound I-1282], the figure is under 0.01 µM; as for `Cc1cc(C)c(Nc2nc(=O)c(F)cn2Cc2cc(F)c(F)c(F)c2)cc1F` [Compound I-1238], under 0.01 µM; as for `COc1ccc(Nc2nc(=O)cnn2Cc2cc(F)cc(Cl)c2)c(C)c1` [Compound I-1269], 0.01 to 0.1 µM.
Take `CCOc1cc(Nc2nc(=O)c(OC)cn2Cc2cc(F)cc(Cl)c2)c(C)cc1C` [Compound I-0789]: the IC50 was under 0.01 µM.
As for `Cc1cc2cc(Nc3nc(=O)c(F)cn3Cc3cc(F)cc(F)c3)c(C)cc2[nH]1` [Compound I-1057], the IC50 is 0.01 to 0.1 µM.
As for `Cc1ccc(-c2cscn2)cc1Nc1nc(=O)c(F)cn1Cc1ccc(F)c(F)c1` [Compound I-0861], the IC50 was under 0.01 µM.
On to `COc1cn(Cc2cc(F)c(F)c(F)c2)c(Nc2cc3sc(C(F)F)nc3cc2C)nc1=O` [Compound I-0934], for which the IC50 lay within 0.01 to 0.1 µM.
For the molecule `C=C(C)c1ccc(C)c(Nc2nc(=O)c(OC)cn2Cc2ccc(F)c(Cl)c2)c1` [Compound I-0723], the IC50 was in the range of 0.01 to 0.1 µM.
In the case of `CCOc1ccc(C)c(Nc2nc(=O)c(F)cn2Cc2ccc(F)c(Cl)c2)c1` [Compound I-0998], the 50% inhibitory concentration (IC50) was under 0.01 µM.
Take `Cc1ccc(Nc2nc(=O)c(F)cn2Cc2cc(F)c(F)c(F)c2)c(Cl)c1` [Compound I-1184]: the IC50 was under 0.01 µM.
On to `CN=c1nc(Nc2cc(C)ccc2C)n(Cc2cc(F)c(F)c(F)c2)cc1F` [Compound I-1289], for which the concentration for half-maximal inhibition (IC50) was in the range of 0.1 to 0.5 µM.
`COc1cc(Nc2nc(=O)c(OC)cn2Cc2ccc(F)c(F)c2)c(C)cc1F` [Compound I-0779]: the IC50 was under 0.01 µM.
The same measure, in the same setting: as for `COc1cc(Nc2nc(=O)c(OC)cn2Cc2cc(F)cc(Cl)c2)c(C)cc1F` [Compound I-0780], the figure is 0.01 to 0.1 µM; as for `Cc1ccc(N2CCCC2=O)cc1Nc1nc(=O)c(F)cn1Cc1cc(F)cc(F)c1` [Compound I-0700], under 0.01 µM.
For the molecule `COc1cn(Cc2ccc(F)c(Cl)c2)c(Nc2ccc3c(c2C)OC(F)(F)C(F)(F)O3)nc1=O` [Compound I-0824], the IC50 lay in the range of 0.01 to 0.1 µM.
On the same count and under the same terms, as for `COc1cc(C)c(Nc2nc(=O)ccn2Cc2cc(F)c(F)c(F)c2)cc1OC` [Compound I-1150], the figure is 0.01 to 0.1 µM; as for `Cc1cc2cc(Nc3nc(=O)c(F)cn3Cc3cc(F)c(F)c(F)c3)c(C)cc2[nH]1` [Compound I-1054], under 0.01 µM; as for `COc1cn(Cc2cc(F)cc(F)c2)c(Nc2cc(CO)c(C)cc2C)nc1=O` [Compound I-0600], under 0.01 µM.
Consider `CN1CCc2c(cccc2Nc2nc(=O)c(F)cn2Cc2cc(F)c(F)c(F)c2)C1` [Compound I-1107], for which the IC50 was 0.01 to 0.1 µM.
`COc1cc(C)c(Nc2nc(=O)c(C#N)cn2Cc2ccc(F)c(F)c2)cc1C` [Compound I-1160]: the IC50 was under 0.01 µM.
For `Cc1cc(F)c(C)c(Nc2nc(=O)c(F)cn2Cc2cc(F)c(F)c(F)c2)c1` [Compound I-1244], the concentration for half-maximal inhibition (IC50) is under 0.01 µM.
For the molecule `Cc1cc2c(cc1Nc1nc(=O)c(C#N)cn1Cc1cc(F)c(F)c(F)c1)COC2` [Compound I-1130], the IC50 was 0.01 to 0.1 µM.
As for `COc1cn(Cc2cc(F)c(F)c(F)c2)c(Nc2ccc3c(c2C)COC3)nc1=O` [Compound I-0911], the IC50 lay in the range of 0.01 to 0.1 µM.
Consider `COCc1cn(Cc2cc(F)c(F)c(F)c2)c(Nc2cc(-c3ncco3)ccc2C)nc1=O` [Compound I-1129], for which the IC50 lay in the range of 0.01 to 0.1 µM.
Regarding `COc1cc(C)c(Nc2nc(=O)c(C(N)=O)cn2Cc2ccc(F)c(F)c2)cc1C` [Compound I-1158], the IC50 was under 0.01 µM.
On the same count and under the same terms, as for `COCc1ccc(C)c(Nc2nc(=O)c(F)cn2Cc2cc(F)c(F)c(F)c2)c1` [Compound I-1086], the figure is under 0.01 µM; as for `COc1cc(C)c(Nc2nc(=O)c(C(=O)O)nn2Cc2cc(F)c(F)c(F)c2)cc1OC` [Compound I-1251], 0.01 to 0.1 µM.
Take `CCOC(=O)c1cn(Cc2cc(F)c(F)c(F)c2)c(Nc2ccc(OC)cc2C)nc1=O` [Compound I-1080]: the IC50 lay within 0.01 to 0.1 µM.
Turning to `COc1cc(Nc2nc(=O)c(F)cn2Cc2ccc(F)c(Cl)c2)c(C)cc1F` [Compound I-1051], the concentration for half-maximal inhibition (IC50) was under 0.01 µM.

As a reminder, the IC50 is the concentration needed to halve the response being measured.
